Data as given in the supplement of paper PMC10307832.

Assays:
Experiment in all cases: relative viability (nuclei count vs DMSO), 5 days (fraction); higher = more cells survive
SW 1573 = test system: SW 1573
Summary of the method: (§1)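 Lung cancer cell lines, seeded in 1536-well plates, were treated the following day by pin tool with a single drug or with five library-drug doses (not always all listed) in √10 steps on top of a fixed anchor-drug dose. Cells were fixed and nuclei stained in one step after 5 days, and nuclei were counted. Relative viability is the nuclei count for treated wells divided by that for vehicle wells, reported as medians of duplicate plates.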

NCI-H1395 = test system: NCI-H1395
Summary of the method: as §1

NCI-H2228 = test system: NCI-H2228
Summary of the method: as §1

HCC-827 = test system: HCC-827
Summary of the method: as §1

CAL-12T = test system: CAL-12T
Summary of the method: as §1

NCI-H1437 = test system: NCI-H1437
Summary of the method: as §1

NCI-H23 = test system: NCI-H23
Summary of the method: as §1

NCI-H522 = test system: NCI-H522
Summary of the method: as §1

EMC-BAC-2 = test system: EMC-BAC-2
Summary of the method: as §1

NCI-H1755 = test system: NCI-H1755
Summary of the method: as §1

NCI-H1792 = test system: NCI-H1792
Summary of the method: as §1

HOP-62 = test system: HOP-62
Summary of the method: as §1

NCI-H727 = test system: NCI-H727
Summary of the method: as §1

HCC-366 = test system: HCC-366
Summary of the method: as §1

SK-LU-1 = test system: SK-LU-1
Summary of the method: as §1

NCI-H460 = test system: NCI-H460
Summary of the method: as §1

COR-L 105 = test system: COR-L 105
Summary of the method: as §1

NCI-H2009 = test system: NCI-H2009
Summary of the method: as §1

A-427 = test system: A-427
Summary of the method: as §1

NCI-H1915 = test system: NCI-H1915
Summary of the method: as §1

LCLC-103H = test system: LCLC-103H
Summary of the method: as §1

HARA = test system: HARA
Summary of the method: as §1

SMILES: CCN(CC)CCCCNc1ncc2cc(-c3cc(OC)cc(OC)c3)c(NC(=O)NC(C)(C)C)nc2n1 + O=C(c1cc(Cc2n[nH]c(=O)c3ccccc23)ccc1F)N1CCN(C(=O)C2CC2)CC1 [Olaparib] (partner 8 µM)
- relative viability (SW 1573; first compound 0.01 µM): 0.513
- relative viability (SW 1573; first compound 0.03162 µM): 0.551
- relative viability (SW 1573; first compound 0.1 µM): 0.613
- relative viability (SW 1573; first compound 0.3162 µM): 0.522
- relative viability (SW 1573; first compound 1 µM): 0.421
- relative viability (NCI-H1395; first compound 0.01 µM): 0.46
- relative viability (NCI-H1395; first compound 0.03162 µM): 0.467
- relative viability (NCI-H1395; first compound 0.1 µM): 0.478
- relative viability (NCI-H1395; first compound 0.3162 µM): 0.497
- relative viability (NCI-H1395; first compound 1 µM): 0.431
- relative viability (NCI-H2228; first compound 0.01 µM): 0.799
- relative viability (NCI-H2228; first compound 0.03162 µM): 0.8
- relative viability (NCI-H2228; first compound 0.1 µM): 0.824
- relative viability (NCI-H2228; first compound 0.3162 µM): 0.547
- relative viability (NCI-H2228; first compound 1 µM): 0.571
- relative viability (HCC-827; first compound 0.01 µM): 0.611
- relative viability (HCC-827; first compound 0.03162 µM): 0.668
- relative viability (HCC-827; first compound 0.1 µM): 0.702
- relative viability (HCC-827; first compound 0.3162 µM): 0.682
- relative viability (HCC-827; first compound 1 µM): 0.735
- relative viability (CAL-12T; first compound 0.01 µM): 0.678
- relative viability (CAL-12T; first compound 0.03162 µM): 0.78
- relative viability (CAL-12T; first compound 0.1 µM): 0.829
- relative viability (CAL-12T; first compound 0.3162 µM): 0.845
- relative viability (CAL-12T; first compound 1 µM): 0.763
- relative viability (NCI-H1437; first compound 0.01 µM): 0.635
- relative viability (NCI-H1437; first compound 0.03162 µM): 0.666
- relative viability (NCI-H1437; first compound 0.1 µM): 0.681
- relative viability (NCI-H1437; first compound 0.3162 µM): 0.642
- relative viability (NCI-H1437; first compound 1 µM): 0.614
- relative viability (NCI-H23; first compound 0.01 µM): 0.306
- relative viability (NCI-H23; first compound 0.03162 µM): 0.226
- relative viability (NCI-H23; first compound 0.1 µM): 0.375
- relative viability (NCI-H23; first compound 0.3162 µM): 0.362
- relative viability (NCI-H23; first compound 1 µM): 0.332
- relative viability (NCI-H522; first compound 0.01 µM): 0.687
- relative viability (NCI-H522; first compound 0.03162 µM): 0.544
- relative viability (NCI-H522; first compound 0.1 µM): 0.708
- relative viability (NCI-H522; first compound 0.3162 µM): 0.85
- relative viability (NCI-H522; first compound 1 µM): 0.663
- relative viability (EMC-BAC-2; first compound 0.03162 µM): 0.485
- relative viability (EMC-BAC-2; first compound 0.1 µM): 0.56
- relative viability (EMC-BAC-2; first compound 0.3162 µM): 0.507
- relative viability (EMC-BAC-2; first compound 1 µM): 0.525
- relative viability (NCI-H1755; first compound 0.01 µM): 0.874
- relative viability (NCI-H1755; first compound 0.03162 µM): 0.947
- relative viability (NCI-H1755; first compound 0.1 µM): 0.958
- relative viability (NCI-H1755; first compound 0.3162 µM): 1.01
- relative viability (NCI-H1755; first compound 1 µM): 0.934
- relative viability (NCI-H1792; first compound 0.01 µM): 0.547
- relative viability (NCI-H1792; first compound 0.03162 µM): 0.475
- relative viability (NCI-H1792; first compound 0.1 µM): 0.668
- relative viability (NCI-H1792; first compound 0.3162 µM): 0.77
- relative viability (NCI-H1792; first compound 1 µM): 0.317
- relative viability (HOP-62; first compound 0.01 µM): 0.608
- relative viability (HOP-62; first compound 0.03162 µM): 0.523
- relative viability (HOP-62; first compound 0.1 µM): 0.416
- relative viability (HOP-62; first compound 0.3162 µM): 0.823
- relative viability (HOP-62; first compound 1 µM): 0.383
- relative viability (NCI-H727; first compound 0.01 µM): 0.674
- relative viability (NCI-H727; first compound 0.03162 µM): 0.504
- relative viability (NCI-H727; first compound 0.1 µM): 0.671
- relative viability (NCI-H727; first compound 0.3162 µM): 0.585
- relative viability (NCI-H727; first compound 1 µM): 0.741
- relative viability (HCC-366; first compound 0.01 µM): 0.323
- relative viability (HCC-366; first compound 0.03162 µM): 0.374
- relative viability (HCC-366; first compound 0.1 µM): 0.362
- relative viability (HCC-366; first compound 0.3162 µM): 0.405
- relative viability (HCC-366; first compound 1 µM): 0.346
- relative viability (SK-LU-1; first compound 0.01 µM): 0.447
- relative viability (SK-LU-1; first compound 0.03162 µM): 0.404
- relative viability (SK-LU-1; first compound 0.1 µM): 0.477
- relative viability (SK-LU-1; first compound 0.3162 µM): 0.472
- relative viability (SK-LU-1; first compound 1 µM): 0.433
- relative viability (NCI-H460; first compound 0.01 µM): 0.462
- relative viability (NCI-H460; first compound 0.03162 µM): 0.514
- relative viability (NCI-H460; first compound 0.1 µM): 0.52
- relative viability (NCI-H460; first compound 0.3162 µM): 0.57
- relative viability (NCI-H460; first compound 1 µM): 0.43
- relative viability (COR-L 105; first compound 0.01 µM): 0.805
- relative viability (COR-L 105; first compound 0.03162 µM): 0.62
- relative viability (COR-L 105; first compound 0.1 µM): 0.73
- relative viability (COR-L 105; first compound 0.3162 µM): 0.619
- relative viability (COR-L 105; first compound 1 µM): 0.696
- relative viability (NCI-H2009; first compound 0.01 µM): 0.828
- relative viability (NCI-H2009; first compound 0.03162 µM): 0.696
- relative viability (NCI-H2009; first compound 0.1 µM): 0.699
- relative viability (NCI-H2009; first compound 0.3162 µM): 0.75
- relative viability (NCI-H2009; first compound 1 µM): 0.7
- relative viability (A-427; first compound 0.01 µM): 0.781
- relative viability (A-427; first compound 0.03162 µM): 0.746
- relative viability (A-427; first compound 0.1 µM): 0.838
- relative viability (A-427; first compound 0.3162 µM): 0.816
- relative viability (A-427; first compound 1 µM): 0.685
- relative viability (NCI-H1915; first compound 0.01 µM): 0.234
- relative viability (NCI-H1915; first compound 0.03162 µM): 0.291
- relative viability (NCI-H1915; first compound 0.1 µM): 0.239
- relative viability (NCI-H1915; first compound 0.3162 µM): 0.245
- relative viability (NCI-H1915; first compound 1 µM): 0.222
- relative viability (LCLC-103H; first compound 0.01 µM): 0.813
- relative viability (LCLC-103H; first compound 0.03162 µM): 0.788
- relative viability (LCLC-103H; first compound 0.1 µM): 0.888
- relative viability (LCLC-103H; first compound 0.3162 µM): 0.833
- relative viability (LCLC-103H; first compound 1 µM): 0.567
- relative viability (HARA; first compound 0.01 µM): 0.697
- relative viability (HARA; first compound 0.03162 µM): 0.62
- relative viability (HARA; first compound 0.1 µM): 0.561
- relative viability (HARA; first compound 0.3162 µM): 0.811
- relative viability (HARA; first compound 1 µM): 0.443
